Reference: patent US20250186448A1 (Mezzion Pharma Co., Ltd., priority 2021, published 2025)
Where “and” joins values, the source holds several entries; their conditions need not be identical. Equal entries are not always repeated.

Key:
[1] = tested on: adolescents with Single Ventricle Heart Disease who underwent Fontan palliation; assay: FALD study: liver stiffness by ultrasound shear wave elastography (SWE); format: in vivo, human; set-up: USWE, Post Baseline: unit not given beside the values; USWE, Change from Baseline: unit not given here; conditions: Cohort U− (udenafil for 52 weeks), individual subject
Excerpt: Ultrasound SWE uses one or more acoustic radiation force impulses (ARFI) or “push pulses” to generate shear waves in the tissue of interest. These shear waves can be tracked and their speed measured, with increasing tissue stiffness associated with increasing tissue shear wave speed. Shear wave speed can be mathematically converted to both shear and Young's moduli (in kPa), mechanical properties related to tissue rigidity and elasticity. There are two major forms of ultrasound SWE-“point” and “2D”. Point ultrasound SWE provides a very focal estimate of liver stiffness using a small region-of-interest, wh[…] ultrasound SWE provides a regional color parameteric map (elastogram) of image stiffness and allows measurement over a much larger area of the liver. The FALD study, ClinicalTrials.gov Identifier: NCT03430583, which is incorporated herein by reference in its entirety, was an open-label extension study that integrated with the FUEL Extension Trial. […] Both the U- cohort and the U+ cohort had liver stiffness measured by ultrasound and MR elastography (where available), and ELF biomarkers analyzed, as described above. […] The primary outcome measure of the FALD study was the range of liver stiffness in adolescents with Single Ventricle Heart Disease who underwent Fontan palliation. Secondary outcome measures included the effect of drug therapy on liver stiffness, and the effect of drug therapy on Enhanced Liver Fibrosis (ELF) score. See Clinical Trials.gov identifier NCT03430583, at p. 3. It is to be understood that present invention contemplates udenafil drug products that are therapeutically equivalent to the udenafil drug products of the present invention.

[2] = tested on: adolescents with Single Ventricle Heart Disease who underwent Fontan palliation; assay: FALD study: circulating biomarkers of heart failure and liver fibrosis (HA, PIIINP, TIMP-1, BNP and others); format: in vivo, human; set-up: HA, Post Baseline / TIMP−1, Post Baseline: unit not given beside the values; HA, Change from Baseline / TIMP−1, Change from Baseline / BNP, Change from Baseline: unit not given here; conditions: Cohort U− (udenafil for 52 weeks), individual subject
Excerpt: As noted previously, increased liver stiffness can be secondary to hepatic congestion and/or hepatic fibrosis. […] For instance, patients with increased liver stiffness due to hepatic congestion may have increased biomarkers of heart failure (e.g., BNP, NT-proBNP). […] The relative contribution of congestion or fibrosis (as determined by biomarker profiles) to the observed level of liver stiffness may correlate with which therapeutic strategies are likely to be successful in a particular patient. Therefore, in this aim, we sought to determine which circulating biomarkers correlate with measures of liver stiffness and which correlate with a change in liver stiffness with udenafil treatment. We used both a directed approach, with an analysis of candidate biomarkers validated for other disease processes, and a non-directed approach, which identifies novel biomarkers associated with FALD. The FALD study, ClinicalTrials.gov Identifier: NCT03430583, which is incorporated herein by reference in its entirety, was an open-label extension study that integrated with the FUEL Extension Trial. […] Both the U− cohort and the U+ cohort had liver stiffness measured by ultrasound and MR elastography (where available), and ELF biomarkers analyzed, as described above. […] The Enhanced Liver Fibrosis (ELF) scores were based on the serum levels of hyaluronic acid (HA), amino-terminal propeptide of type III collagen (PIIINP), and tissue inhibitor of metalloproteinase-1 (TIMP-1). Testing was performed by the FUEL-OLE Central Laboratory using the serum samples. In accordance with prior studies, we assigned those patients with scores of <7.7 to the no-fibrosis or mild fibrosis group, 7.7-9.8 to the moderate fibrosis group, 9.8-11.3 to the severe fibrosis group, and >11.3 to the cirrhosis group.

[3] = tested on: adolescents with Fontan physiology; conditions: phase I/II study, cited from earlier work

In the case of `CCCOc1ccc(S(=O)(=O)NCCC2CCCN2C)cc1-c1nc2c(CCC)nn(C)c2c(=O)[nH]1` (stereo not drawn) [Udenafil, udenafil], the “USWE, % Change from Baseline” value [1] is reported as −2.439% and −7.692% and 6.011% and 20.92% and −0.9302% and −22.07% and −1.22%, the “USWE, Change from Baseline” value [1] is reported as −0.06 and −0.13 and 0.11 and 0.41 and −0.02 (2×) and −0.49 and 0.09 and the “USWE, Post Baseline” value ([1]; Post Baseline visit (52 week)) is reported as 2.4 and 1.56 and 1.94 and 2.37 and 2.13 and 1.73 and 1.62 and 2.08. For the same molecule, the “BNP, % Change from Baseline” value [2] was −83.33% and −55.56% and −96.2963% and −33.75% and −25.17% and −20%, the “BNP, Change from Baseline” value [2] was −5 and −25 and −26 and −10.7 and −3.7 and −6.5 and −3 and the “HA, % Change from Baseline” value [2] was −23.28% and −55.89% and −92.1% and −78.47% and 255.6% and 69.68%. For the same molecule, the “HA, Change from Baseline” value [2] was −10.87 and −67.92 and −82.42 and −137.35 and 54.28 and 27.67 and 3.05, the “PIIINP, % Change from Baseline” value [2] was −52.39% and −50.4522% and 5.12% and −50.05% and −15.3% and 66.2% and the “PIIINP, Change from Baseline” value [2] was −19.04 and −15.62 and 0.77 and −23.08 and −2.33 and 9.99 and 1.99. The “TIMP−1, % Change from Baseline” value [2] was 1.424% and 1.608% and 25.82% and −5.136% and 3.739% and 19.54%, the “TIMP−1, Change from Baseline” value [2] was 2.3 (2×) and 39.4 and −9.8 and 6.2 and 47.1 and 56.3 and the “BNP, Post Baseline” value ([2]; Post Baseline visit (52 week)) was 1 (2×) and 20 and 21 and 11 and 26 and 3. For the same molecule, the “HA, Post Baseline” value ([2]; Post Baseline visit (52 week)) was 35.83 and 53.6 and 7.07 and 37.68 and 75.52 and 67.38 and 23.1, the “PIIINP, Post Baseline” value ([2]; Post Baseline visit (52 week)) was 17.3 and 15.34 and 15.81 and 23.03 and 12.9 and 25.08 and 27.3 and the “TIMP−1, Post Baseline” value ([2]; Post Baseline visit (52 week)) was 163.8 and 145.3 and 192 and 181 and 172 and 288.2 and 290.4. For the same molecule, the Tolerability ([3]; adolescents with Fontan physiology, all tested dosing regimens) was “demonstrated tolerability at all tested dosing regimens”, the “Average serum concentration, compared among dosing regimens” value ([3]; 87.5 mg twice daily) was “highest average serum concentration” and the “Dose limiting adverse events” value ([3]; 87.5 mg twice daily) was “not associated with dose limiting adverse events”.
